The subject of the assay is intact platelets. Briefly: mitochondrial respiration of intact platelets (titration protocol). In kind it is cell-based, human. The method, then:
Data was recorded with DatLab software 4.3.
Integrated respiration of intact cells with endogenous mitochondrial substrates was evaluated with two different titration protocols. Platelets were suspended in either PBS-glucose or the control subject's own plasma. […] To evaluate the contribution of respiration independent of ADP phosphorylation, oligomycin (1 μg/ml, ATP-synthase inhibitor) was sequentially added inducing LEAK respiration state (also known as oligomycin-induced state 4 respiration). […] Rotenone (2 μM, complex I [CI] inhibitor) and antimycin-A (1 μg/ml, complex III [CIII] inhibitor) were then sequentially added to inhibit the ETS providing the residual oxygen consumption which was subtracted from the different respiratory parameters in further analyses.
In order to evaluate the influence on maximal respiratory capacity by the inhibition of ATP-synthase, a second experimental protocol was performed, where ETS capacity was evaluated by direct titration of FCCP after stabilization of routine respiration, followed by the same inhibitors as above. Control ratios were derived from maximal, FCCP-stimulated, respiration divided by LEAK respiration (ETS/LEAK) and routine respiration (ETS/routine).

On to antimycin-A, for which, under “intact platelets, antimycin-A 1 μg/ml added after rotenone 2 μM”, the “further inhibition of respiration after rotenone” value is recorded as “no further inhibition”. Consider `C=C(C)[C@H]1Cc2c(ccc3c2O[C@@H]2COc4cc(OC)c(OC)cc4[C@@H]2C3=O)O1` [rotenone], for which, where the note is “Homo sapiens, Platelet, read-out: inhibition of respiration”, the inhibition at 2 µM was roughly 99%.
